One series has as its system L 1210 leukemia cells. Nature of the series: Inhibition of growth of L 1210 leukemia cells in culture. The class given is cell-based. Particulars: Mus musculus, L1210, 48 h; L 1210 cells, RPMI 1640 with 20% calf serum, 37° C., 2 days; read-out: IC50 Cell growth. How it is done:
L 1210 culture cells (5×10^4 cells/ml; final cell concentration) were inoculated to RPMI 1640 medium (Roswell Park Memorial Institute 1640 medium) containing 20% calf serum and then one of the anthracyclinone glycosides listed in Table 4 was added to make a final concentration of 0.1-5 μg/ml. After incubation at 37° C. for 2 days in a CO2 incubator, the number of cells was counted. Based on these counts, the 50% inhibitory concentration (IC50) of each test compound on the growth of L 1210 leukemia cells was calculated relative to the control test.

The conditions of series [1]: in words, cited from earlier work.
Series [2] concerns RNA synthesis in L 1210 cells. Nature of the series: Inhibition of RNA synthesis in L 1210 cells (radioactive precursor incorporation). The class given is cell-based. Particulars: Mus musculus, L1210; L 1210 cells, 15 min pre-incubation, 60 min with radioactive precursor (^14 C-uridine or ^14 C-thymidine); read-out: IC50 RNA synthesis. How it is done: (§1) For measurement of IC50 on the synthesis of nucleic acids, 5×10^5 L 1210 cells/ml were pre-cultured at 37° C. for 1-2 hours in RPMI 1640 medium containing 10% calf serum in a CO2 incubator. One of the anthracyclinone glycosides listed in Table 4 was added and incubated for a further 15 minutes. Then 0.05 μCi/ml of ^14 C-uridine or ^14 C-thymidine was added and incubated for a further 60 minutes. At the end of incorporation of the radioactive compound, 10% trichloroacetic acid was poured into the cell suspension for termination of the reaction as well as forced precipitation. The acid-insoluble fraction was collected, rinsed three times with 5% trichloroacetic acid and then dissolved in formic acid for measurement of radioactivity. Based on the radioactivities of the test and control runs, IC50 was calculated.

The test system of series [3] is DNA synthesis in L 1210 cells. Nature of the series: Inhibition of DNA synthesis in L 1210 cells (radioactive precursor incorporation). The class given is cell-based. Particulars: Mus musculus, L1210; L 1210 cells, 15 min pre-incubation, 60 min with radioactive precursor (^14 C-uridine or ^14 C-thymidine); read-out: IC50 DNA synthesis. How it is done:
as §1

A further series has as its system L 1210 leukemia. Kind of series: Antitumor activity: prolongation of survival time of CDF1 mice after intraperitoneal transplantation of L 1210 leukemia cells. Particulars: Mus musculus, L1210, ip, 720 h, read-out: Prolongation rate of the survival time (T/C). The format is in vivo. How it is done: After intraperitoneal transplantation of L 1210 leukemia cells (1×10^5 cells/mouse), 0.25 ml/animal of solutions of one of the anthracyclinone glycosides (HCl salts) of the present invention in physiological saline was intraperitoneally injected to CDF1 mice every day for 9 days.

Values after ≈ are worked out from the molar mass of the structure shown. Where two headings read alike, the source gives them in different places. Some results are limits rather than exact numbers.

The source of these data is patent US4418192A, “Anthracyclinone trisaccharide compounds” (priority 1981, dated 1983).

Consider `COc1cccc2c1C(=O)c1c(O)c3c(c(O)c1C2=O)C[C@@](O)(C(=O)CO)C[C@@H]3O[C@H]1C[C@H](N)[C@H](O)[C@H](C)O1` [Adriamycin, reference compound], for which the figures for the 50% inhibitory concentration (IC50) (in the series on L 1210 leukemia cells; in series [2]; in series [3]) were 0.018 µg/mL (≈ 0.0331 µM), 0.49 µg/mL (≈ 0.902 µM) and 1.25 µg/mL (≈ 2.3 µM), respectively. For the same molecule, the side effects result in series [1] (clinical use as antitumor chemotherapeutics) was “often cause undesirable side effects”.

Turning to `CC[C@@]1(O)C[C@H](O[C@H]2C[C@H](N(C)C)[C@H](O[C@H]3C[C@H](O)[C@H](O[C@H]4CCC(=O)[C@H](C)O4)[C@H](C)O3)[C@H](C)O2)c2c(cc3c(c2O)C(=O)c2c(O)cccc2C3=O)[C@H]1C(=O)OC` [Aclacinomycin A, reference compound], the IC50 in the series with L 1210 leukemia cells was 0.03 µg/mL (≈ 0.037 µM); in series [2], 0.085 µg/mL (≈ 0.105 µM); in series [3], 0.65 µg/mL (≈ 0.801 µM). Besides, the cardio-toxicity entry in series [1] (U.S. Pat. No. 3,988,315 and Jap. P. No. 864,851) is recorded as “less cardio-toxic”.

Regarding `CC(=O)O[C@H]1C[C@H](O[C@@H]2[C@H](C)O[C@@H](O[C@H]3C[C@](O)(C(C)=O)Cc4c(O)c5c(c(O)c43)C(=O)c3c(O)cccc3C5=O)C[C@@H]2N(C)C)O[C@@H](C)[C@H]1O[C@H]1CCC(=O)[C@H](C)O1` [3"-O--acetyl CMN--RDC], the half-inhibitory concentration (IC50) in the series with L 1210 leukemia cells was < 0.01 µg/mL. In series [2], the IC50 is 0.04 µg/mL (≈ 0.0484 µM). Besides, the half-maximal inhibitory concentration (IC50) in series [3] was 0.36 µg/mL (≈ 0.436 µM). Also, in the series on L 1210 leukemia, the response vs control in vivo at 1.25 mg/kg is 124%, the response vs control in vivo at 2.5 mg/kg was found to be 159%, the response vs control in vivo at 5 mg/kg was found to be 208% and the response vs control in vivo at 7.5 mg/kg amounted to 214%. Further, the response vs control in vivo at 10 mg/kg with L 1210 leukemia was 165%.

Regarding `CC(=O)[C@]1(O)Cc2c(O)c3c(c(O)c2[C@@H](O[C@H]2C[C@H](N(C)C)[C@H](O[C@H]4C[C@H](O)[C@H](O[C@H]5CCC(=O)[C@H](C)O5)[C@H](C)O4)[C@H](C)O2)C1)C(=O)c1c(O)cccc1C3=O` [CMN--RDC], in the series on L 1210 leukemia cells, the IC50 was < 0.01 µg/mL. For the same molecule, the IC50 in series [2] worked out at 0.035 µg/mL (≈ 0.0447 µM). Also, the IC50 in series [3] turned out to be 0.19 µg/mL (≈ 0.242 µM). In the series on L 1210 leukemia, the response vs control in vivo at 1.25 mg/kg was found to be 132%, the response vs control in vivo at 2.5 mg/kg came to 160%, the response vs control in vivo at 5 mg/kg is 180% and the response vs control in vivo at 7.5 mg/kg is 145%.

Take `COc1cccc2c1C(=O)c1c(O)c3c(c(O)c1C2=O)C[C@@](O)(C(=O)CO)C[C@@H]3O[C@H]1C[C@H](N(C)C)[C@H](O[C@H]2C[C@H](OC(C)=O)[C@H](O[C@H]3CCC(=O)[C@H](C)O3)[C@H](C)O2)[C@H](C)O1` [3"-O--acetyl AMN--RDC]: the IC50 in the series on L 1210 leukemia cells is < 0.01 µg/mL; in series [2] it was 0.012 µg/mL (≈ 0.014 µM); in series [3], 0.32 µg/mL (≈ 0.374 µM). Further, the response vs control in vivo at 0.32 mg/kg in the series on L 1210 leukemia (0.32 mg/kg/day, i.p. every day for 9 days, HCl salts, L 1210 i.p. in CDF1 mice, control = 100) is 144%. Moreover, the response vs control in vivo at 0.63 mg/kg in the series on L 1210 leukemia (0.63 mg/kg/day, i.p. every day for 9 days, HCl salts, L 1210 i.p. in CDF1 mice, control = 100) was determined as 165%. In addition, the response vs control in vivo at 1.25 mg/kg with L 1210 leukemia (1.25 mg/kg/day, i.p. every day for 9 days, HCl salts, L 1210 i.p. in CDF1 mice, control = 100) turned out to be 140%. For the same molecule, the response vs control in vivo at 2.5 mg/kg in the series with L 1210 leukemia (2.5 mg/kg/day, i.p. every day for 9 days, HCl salts, L 1210 i.p. in CDF1 mice, control = 100) came to 96%.

`COc1cccc2c1C(=O)c1c(O)c3c(c(O)c1C2=O)C[C@@](O)(C(C)=O)C[C@@H]3O[C@H]1C[C@H](N(C)C)[C@H](O[C@H]2C[C@H](O)[C@H](O[C@H]3CCC(=O)[C@H](C)O3)[C@H](C)O2)[C@H](C)O1` [DMN--RDC]: the IC50 in the series with L 1210 leukemia cells was < 0.01 µg/mL. Further, the IC50 in series [2] was 0.017 µg/mL (≈ 0.0213 µM). Also, the IC50 in series [3] was found to be 0.17 µg/mL (≈ 0.213 µM). In the series on L 1210 leukemia, the response vs control in vivo at 0.32 mg/kg turned out to be 126%, the response vs control in vivo at 0.63 mg/kg came out at 135%, the response vs control in vivo at 1.25 mg/kg was 184% and the response vs control in vivo at 2.5 mg/kg was 187%. Further, the response vs control in vivo at 5 mg/kg in the series with L 1210 leukemia stood at 126%.

As to `COc1cccc2c1C(=O)c1c(O)c3c(c(O)c1C2=O)C[C@@](O)(C(C)=O)C[C@@H]3O[C@H]1C[C@H](N(C)C)[C@H](O[C@H]2C[C@H](O)[C@H](O)[C@H](C)O2)[C@H](C)O1` [DMN--RD], in the series with L 1210 leukemia cells, the IC50 is < 0.01 µg/mL. Moreover, the IC50 in series [2] amounted to 0.04 µg/mL (≈ 0.0583 µM). Besides, the IC50 in series [3] was found to be 0.28 µg/mL (≈ 0.408 µM). Besides, in the series with L 1210 leukemia, the response vs control in vivo at 0.32 mg/kg was 114%, the response vs control in vivo at 0.63 mg/kg was determined as 144%, the response vs control in vivo at 1.25 mg/kg is 172% and the response vs control in vivo at 2.5 mg/kg stood at 165%. The response vs control in vivo at 5 mg/kg in the series on L 1210 leukemia came out at 120%.

For orientation: IC50 means the concentration that inhibits the measured activity by half.
